# According to PubChem BioAssay (NCI):
#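 A five-concentration, 48-hour dose response in 96-well plates underlies each endpoint, interpolated linearly between surrounding concentrations. At the GI50, growth is halved. TGI denotes the concentration required for complete inhibition of growth.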
# Legend:
# Assay in all cases: inhibition of tumour cell growth, NCI panel, 48 h
# TK-10 renal = tested on: TK-10 renal
# OVCAR-3 ovarian = tested on: OVCAR-3 ovarian
# MALME-3M melanoma = tested on: MALME-3M melanoma
# A498 renal = tested on: A498 renal
# MDA-MB-435 = tested on: MDA-MB-435
# OVCAR-8 ovarian = tested on: OVCAR-8 ovarian
# M14 melanoma = tested on: M14 melanoma
# T-47D breast = tested on: T-47D breast
# HCT-15 colon = tested on: HCT-15 colon
# MOLT-4 leukemia = tested on: MOLT-4 leukemia
# SF-268 CNS = tested on: SF-268 CNS
# CAKI-1 renal = tested on: CAKI-1 renal
# SK-MEL-5 melanoma = tested on: SK-MEL-5 melanoma
# BT-549 breast = tested on: BT-549 breast
# HCC-2998 colon = tested on: HCC-2998 colon
# SK-OV-3 ovarian = tested on: SK-OV-3 ovarian
# NCI-H226 lung = tested on: NCI-H226 lung
# SK-MEL-28 melanoma = tested on: SK-MEL-28 melanoma
# SNB-75 CNS = tested on: SNB-75 CNS
# IGROV1 ovarian = tested on: IGROV1 ovarian
# COLO 205 colon = tested on: COLO 205 colon
# SW-620 colon = tested on: SW-620 colon
# CCRF-CEM leukemia = tested on: CCRF-CEM leukemia
# SR leukemia = tested on: SR leukemia
# UACC-62 melanoma = tested on: UACC-62 melanoma
# NCI/ADR-RES ovarian = tested on: NCI/ADR-RES ovarian
# OVCAR-5 ovarian = tested on: OVCAR-5 ovarian
# RXF 393 renal = tested on: RXF 393 renal
# HL-60(TB) leukemia = tested on: HL-60(TB) leukemia
# HS 578T breast = tested on: HS 578T breast
# NCI-H23 lung = tested on: NCI-H23 lung
# SF-295 CNS = tested on: SF-295 CNS
# NCI-H522 lung = tested on: NCI-H522 lung
# SK-MEL-2 melanoma = tested on: SK-MEL-2 melanoma
# KM12 colon = tested on: KM12 colon
# RPMI-8226 leukemia = tested on: RPMI-8226 leukemia
# LOX IMVI melanoma = tested on: LOX IMVI melanoma
# MCF7 breast = tested on: MCF7 breast
# PC-3 prostate = tested on: PC-3 prostate
# U251 CNS = tested on: U251 CNS
# A549 NSCLC = tested on: A549 NSCLC
# HCT-116 colon = tested on: HCT-116 colon
# MDA-MB-231 breast = tested on: MDA-MB-231 breast
# OVCAR-4 ovarian = tested on: OVCAR-4 ovarian
# EKVX NSCLC = tested on: EKVX NSCLC
# HOP-62 NSCLC = tested on: HOP-62 NSCLC
# DU-145 prostate = tested on: DU-145 prostate
# HT29 colon = tested on: HT29 colon
# 786-0 renal = tested on: 786-0 renal
# NCI-H460 lung = tested on: NCI-H460 lung
# UO-31 renal = tested on: UO-31 renal
# HOP-92 NSCLC = tested on: HOP-92 NSCLC
# ACHN renal = tested on: ACHN renal
# UACC-257 melanoma = tested on: UACC-257 melanoma
# SNB-19 CNS = tested on: SNB-19 CNS
# SN12C renal = tested on: SN12C renal
smiles,measurement,setting,value
CCNCCNc1cc(-c2ccc(C(F)(F)F)cc2)c(C#N)c2nc3ccccc3n12,GI50,TK-10 renal,2140 nM
same,TGI,TK-10 renal,3760 nM
same,GI50,OVCAR-3 ovarian,306 nM
same,TGI,OVCAR-3 ovarian,1000 nM
same,GI50,MALME-3M melanoma,1740 nM
same,TGI,MALME-3M melanoma,3340 nM
same,GI50,A498 renal,1860 nM
same,TGI,A498 renal,3330 nM
same,GI50,MDA-MB-435,1280 nM
same,TGI,MDA-MB-435,2560 nM
same,GI50,OVCAR-8 ovarian,1750 nM
same,TGI,OVCAR-8 ovarian,3600 nM
same,GI50,M14 melanoma,1660 nM
same,TGI,M14 melanoma,3160 nM
same,GI50,T-47D breast,790 nM
same,TGI,T-47D breast,2600 nM
same,GI50,HCT-15 colon,612 nM
same,TGI,HCT-15 colon,1900 nM
same,GI50,MOLT-4 leukemia,1310 nM
same,TGI,MOLT-4 leukemia,3290 nM
same,GI50,SF-268 CNS,1480 nM
same,TGI,SF-268 CNS,3040 nM
same,GI50,CAKI-1 renal,1110 nM
same,TGI,CAKI-1 renal,2310 nM
same,GI50,SK-MEL-5 melanoma,1670 nM
same,TGI,SK-MEL-5 melanoma,3040 nM
same,GI50,BT-549 breast,1590 nM
same,TGI,BT-549 breast,3160 nM
same,GI50,HCC-2998 colon,1800 nM
same,TGI,HCC-2998 colon,3400 nM
same,GI50,SK-OV-3 ovarian,1660 nM
same,TGI,SK-OV-3 ovarian,3170 nM
same,GI50,NCI-H226 lung,1700 nM
same,TGI,NCI-H226 lung,3530 nM
same,GI50,SK-MEL-28 melanoma,1540 nM
same,TGI,SK-MEL-28 melanoma,3050 nM
same,GI50,SNB-75 CNS,1230 nM
same,TGI,SNB-75 CNS,2540 nM
same,GI50,IGROV1 ovarian,1450 nM
same,TGI,IGROV1 ovarian,2990 nM
same,GI50,COLO 205 colon,1010 nM
same,TGI,COLO 205 colon,2410 nM
same,GI50,SW-620 colon,1220 nM
same,TGI,SW-620 colon,2750 nM
same,GI50,CCRF-CEM leukemia,266 nM
same,TGI,CCRF-CEM leukemia,683 nM
same,GI50,SR leukemia,343 nM
same,TGI,SR leukemia,1190 nM
same,GI50,UACC-62 melanoma,496 nM
same,TGI,UACC-62 melanoma,1820 nM
same,GI50,NCI/ADR-RES ovarian,1520 nM
same,TGI,NCI/ADR-RES ovarian,2980 nM
same,GI50,OVCAR-5 ovarian,1940 nM
same,TGI,OVCAR-5 ovarian,3520 nM
same,GI50,RXF 393 renal,1690 nM
same,TGI,RXF 393 renal,3160 nM
same,GI50,HL-60(TB) leukemia,203 nM
same,TGI,HL-60(TB) leukemia,468 nM
same,GI50,HS 578T breast,1960 nM
same,TGI,HS 578T breast,4390 nM
same,GI50,NCI-H23 lung,1620 nM
same,TGI,NCI-H23 lung,3250 nM
same,GI50,SF-295 CNS,1830 nM
same,TGI,SF-295 CNS,3340 nM
same,GI50,NCI-H522 lung,1820 nM
same,TGI,NCI-H522 lung,3660 nM
same,GI50,SK-MEL-2 melanoma,2030 nM
same,TGI,SK-MEL-2 melanoma,3870 nM
same,GI50,KM12 colon,1510 nM
same,TGI,KM12 colon,3070 nM
same,GI50,RPMI-8226 leukemia,1360 nM
same,TGI,RPMI-8226 leukemia,3610 nM
same,GI50,LOX IMVI melanoma,185 nM
same,TGI,LOX IMVI melanoma,382 nM
same,GI50,MCF7 breast,642 nM
same,TGI,MCF7 breast,2180 nM
same,GI50,PC-3 prostate,1540 nM
same,TGI,PC-3 prostate,2950 nM
same,GI50,U251 CNS,466 nM
same,TGI,U251 CNS,1610 nM
same,GI50,A549 NSCLC,1750 nM
same,TGI,A549 NSCLC,3410 nM
same,GI50,HCT-116 colon,388 nM
same,TGI,HCT-116 colon,1320 nM
same,GI50,MDA-MB-231 breast,1160 nM
same,TGI,MDA-MB-231 breast,2520 nM
same,GI50,OVCAR-4 ovarian,469 nM
same,TGI,OVCAR-4 ovarian,1780 nM
same,GI50,EKVX NSCLC,1620 nM
same,TGI,EKVX NSCLC,3070 nM
same,GI50,HOP-62 NSCLC,1560 nM
same,TGI,HOP-62 NSCLC,3180 nM
same,GI50,DU-145 prostate,1440 nM
same,TGI,DU-145 prostate,2780 nM
same,GI50,HT29 colon,365 nM
same,TGI,HT29 colon,1290 nM
same,GI50,786-0 renal,1570 nM
same,TGI,786-0 renal,3060 nM
same,GI50,NCI-H460 lung,1220 nM
same,TGI,NCI-H460 lung,2730 nM
same,GI50,UO-31 renal,1360 nM
same,TGI,UO-31 renal,2770 nM
same,GI50,HOP-92 NSCLC,1550 nM
same,TGI,HOP-92 NSCLC,2980 nM
same,GI50,ACHN renal,1240 nM
same,TGI,ACHN renal,2640 nM
same,GI50,UACC-257 melanoma,2180 nM
same,TGI,UACC-257 melanoma,3830 nM
same,GI50,SNB-19 CNS,1720 nM
same,TGI,SNB-19 CNS,3320 nM
same,GI50,SN12C renal,1340 nM
same,TGI,SN12C renal,2830 nM
